Tests used:
[1] = test system: cad-11 mRNA in endometrial stromal cells; experiment: Northern blot of cad-11 mRNA in cultured endometrial stromal cells treated with gonadal steroids; format: cell-based, human; details: P4 1 mM, E2 30 nM
Description: (§1) Endometrial tissue biopsies (n=6) were obtained from women of reproductive age during the mid-secretory phase of the menstrual cycle. All patients had normal menstrual cycles and had not received hormones for at least three months prior to the collection of tissue. The stage of the menstrual cycle was determined by the last menstrual period and confirmed by histological evaluation.
The endometrial stromal cells were separated from the glandular epithelium by enzymatic digestion and mechanical dissociation. […] The purity of the cell cultures was determined by immunocytochemical staining for vimentin, cytokeratin, muscle actin, and […]. […]
The Northern blots were hybridized with radiolabelled cDNA probes specific for human cad-11 according to the methods of MacCalman et al. (1992) Developmental Dynamics 195:127-132. […] The absorbance values obtained for cad-11 mRNA transcripts were normalized relative to the 18S rRNA absorbance value.
(§2) The results are presented as the mean relative absorbance (+SE) for three independent experiments. Statistical differences between time points and treatments were assessed by the analysis of variance (ANOVA). […] Significant differences between the means were determined using the least significant test.

[2] = test system: cad-11 protein in endometrial stromal cells; experiment: Western blot of cad-11 protein in cultured endometrial stromal cells treated with gonadal steroids; format: cell-based, human
Description: as §1
The endometrial stromal cells were separated from the glandular epithelium by enzymatic digestion and mechanical dissociation. The endometrial biopsy specimens were minced and subjected to 0.1% colagenase (type 1A. Sigma Chemical Co., St. Louis. MO) and 0.1% hyaluronidase (type I-S, Sigma Chemical Co.) digestion in a shaking water bath at 37° C. for 1 hour. The cell digest was then passed through a nylon sieve (38 m). The isolated glands were retained on the sieve and the eluate containing the stromal cells collected in a 50 ml tube. […] The purity of the cell cultures was determined by immunocytochemical staining for vimentin, cytokeratin, muscle actin, and […]. […]
as §2

cad-11 = experiment: Cad-11 antisense/sense oligonucleotide studies, second oligonucleotide pair; format: cell-based, human; details: no individual experiments specified
Description: Antisense oligonucleotide sequences (18 mers, 50% AT/GC) were selected from the full-length cad-11 cDNA sequence using the MacVector™ program. DNA sequences located near the 5′ end of the cad-11 cDNA were selected and compared to the human sequence databases of GenBank and EMBL bank. […] Sense oligonucleotides, OB-3 and OB-4, were prepared as controls. Phosphothiorate labelled oligonucleotides were prepared at the Biotechnology Lab. of The University of British Columbia. The same results were obtained using OB-1 and OB-3, as with OB-2 and OB-4.

[3] = test system: cad-11 RNA transcript in human granulosa cells; experiment: Specificity of antisense in granulosa cells, Northern blot, cad-11 probe; format: cell-based; set-up: dose or concentration left out as unconfirmed; details: 24 hours, dose-dependent manner for OB-1
Description: (§3) In order to determine the specificity of OB-1, the effect of OB-1 was determined in human granulosa cells. Human granulosa cells express three cadherin subtypes (cad-11, cad-6 and N-cad) as they undergo spontaneous luteinization in culture. Granulosa cells which had been cultured for 36 hours were treated with OB-1 or OB-3 (0.5-5 M). The cultures were maintained for a further 24 hours, after which the cells were harvested for Northern analysis. Northern blots were probed with cad-11, cad-6, or N-cadherin (neural cadherin) cDNA probes as previously described. OB-1 caused a reduction in the levels of the cad-11 RNA transcript in a dose-dependent manner but had no effect on cad-6 or N-cadherin mRNA levels. In contrast.

[4] = test system: cad-6 mRNA in human granulosa cells; experiment: Specificity of antisense in granulosa cells, Northern blot, cad-6 probe; format: cell-based; details: 0.5-5 M, 24 hours
Description: as §3

[5] = test system: N-cadherin mRNA in human granulosa cells; experiment: Specificity of antisense in granulosa cells, Northern blot, N-cadherin probe; format: cell-based; details: 0.5-5 M, 24 hours
Description: as §3

[6] = test system: Cos-1 cells transfected with the steroid acute regulatory protein; experiment: Non-specific effects on cell number and steroidogenic capacity in Cos-1 cells; format: cell-based; set-up: cell number (Coulter cell counter): dose or concentration left out as unconfirmed
Description: Non-specific effects of the antisense oligonucleotides on cell viability and the steroidogenic capacity of cells was determined using Cos-1 cells transfected with the steroid acute regulatory protein (from Dr. J. F. Strauss, III. University of Pennsylvania, Philadelphia, Pa.). […] The COS-1 cells were cultured in the presence or absence of varying concentrations of OB-1 OR OB-3 (0.5-5 M) for 48 hours. The cell number present in each culture was determined using a Coulter™ cell counter and P4 concentrations present in the culture medium using a Progesterone RIA™ kit. As determined by these parameters.

[7] = test system: cytotrophoblasts isolated from term placenta; experiment: Morphology of cytotrophoblasts by light microscopy and indirect immunofluorescence; format: cell-based, human; details: indirect immunofluorescence for E-cadherin
Source text: The effect of OB-1 and OB-3 on the morphology of the cytotrophoblast was examined by light microscopy and indirect immunofluoresence.

villous cytotrophoblasts = experiment: Reversibility of oligonucleotide effects on villous cytotrophoblasts; format: cell-based, human; details: 48 hours with oligonucleotide, washed, further 24 hours
Description: To determine whether the effects of OB-1 on villous cytotrophoblasts are reversible, cells were cultured in the presence of OB-1 or OB-3 for 48 hours. The cells were washed thoroughly with PBS. The culture medium was then replaced and the cells cultured for a further 24 hours. […] The majority of cells (90%) detached from the culture and dish. Cad-11 was not detected in the remaining cells.

[8] = test system: Villous cytotrophoblasts isolated from the human term placenta, cultured 72 hours
human decidual cells = experiment: Effect on primary cultures of human decidual cells; details: 0.5-5 M for 24 hours
[9] = test system: PC3 cells treated with TGF-1; experiment: Effect of oligonucleotides on PC3 cells treated with TGF-1; details: 0.5-5 M for 24 hours

Compound: CC(=O)[C@H]1CC[C@H]2[C@@H]3CCC4=CC(=O)CC[C@]4(C)[C@H]3CC[C@]12C [P4, progesterone]
- time in culture at which maximum cad-11 mRNA levels were observed [1]: 12 days
- stromal cad-11 mRNA levels ([1]; alone or together, increase seen after 2 days of culture, studied 0-12 days): significant increase
- time in culture at which maximum cad-11 expression levels were detected [2]: 12 days
- cad-11 protein expression ([2]; P4, E2 30 nM, alone or together, increase seen at 2 days of culture): increase

Compound: OB-2: cad-11 antisense oligonucleotide, 18 mer: CAC GAA GAA CTG GTT CCA (SEQ ID NO:2) (antisense CACGAAGAACTGGTTCCA; listed as DNA, chemistry not given here; listed as Homo sapiens)
- results compared with the pair OB-1 (antisense) and OB-3 (sense) (cad-11): same results

Compound: OB-3: sense oligonucleotide prepared as control: ATG ACA AAT GTT CGG CGG (SEQ ID NO:3) (sense ATGACAAATGTTCGGCGG; chemistry not given here) [reference compound]
- levels of the cad-11 RNA transcript [3]: did not effect
- cad-6 mRNA levels [4]: did not effect
- N-cadherin mRNA levels [5]: did not effect
- steroidogenic capacity (P4 concentrations in culture medium, RIA) ([6]; 0.5-5 M for 48 hours): did not have a significant effect
- cell number (Coulter cell counter) ([6]; for 48 hours): did not have a significant effect
- composition of cellular structures formed (fusion) [7]: multinucleated syncytial structures
- structures observed after wash-out (villous cytotrophoblasts): large syncytial structures
- viability of syncytial structures (trypan blue) [8]: viable
- structures observed (phase contrast microscopy) ([8]; oligonucleotide added after 72 hours of culture, OB-1 for 24 hours): Large syncytial structures
- cell viability and number (human decidual cells): did not have a significant effect
- cell viability and number [9]: did not have a significant effect

Compound: OB-4: sense oligonucleotide prepared as control: ACC TTG GTC AAG AAG CAC (SEQ ID NO:4) (sense ACCTTGGTCAAGAAGCAC; listed as DNA, chemistry not given here) [reference compound]
- results compared with the pair OB-1 (antisense) and OB-3 (sense) (cad-11): same results

Source: patent US20050180982A1, “Cadherin-11 expression, an assay and treatment for cellular invasiveness” (THE UNIVERSITY OF BRITISH COLUMBIA, priority 1998, published 2005)
